Assay: TED14856 Part B (dose expansion, 400 mg QD): safety, TEAEs
Assay type: in vivo, human
Procedure: Part B: Dose expansion study to evaluate the efficacy, safety, PK and PD of compound (1) administered at the RD (from Part A). […] A BID regimen (without omission on Day 2) may also be explored if found to be needed. Safety population includes all patients exposed to at least one dose of the study treatment. Treatment emergent adverse events (TEAEs) are analyzed according to current version of the Medical Dictionary for Regulatory Activities (MedDRA) dictionary. Laboratory abnormalities are analyzed according to the NCI-CTCAE v.4.03. Type, frequency, seriousness, severity and relatedness of study treatment TEAEs is analyzed on the safety population for each dose level. Similar analyses as for the escalation phase shall be performed.

Question: For `O=C(O)c1ccc2c(c1)CCCC(c1ccc(Cl)cc1Cl)=C2c1ccc(O[C@H]2CCN(CCCF)C2)cc1` [compound (1), 6-(2,4-dichlorophenyl)-5-[4-[(3S)-1-(3-fluoropropyl)pyrrolidin-3-yl]oxyphenyl]-8,9-dihydro-7H-benzo[7]annulene-2-carboxylic acid], which “Grade 4 laboratory abnormality: hypokalemia” value (Part B) is on record?
Answer: 1 patients

Question: What about the “Grade 4 laboratory abnormality: hyponatremia” value (Part B) of the same compound?
Answer: 1 patients

Question: What about the “Patients with Gr3 TEAE: Abdominal pain” value (Part B, 400 mg, N=49) of the same compound?
Answer: 0 n

Question: What about the “Patients with Gr3 TEAE: Abdominal pain upper” value (Part B, 400 mg, N=49) of the same compound?
Answer: 0 n

Question: What about the “Patients with Gr3 TEAE: Arthralgia” value (Part B, 400 mg, N=49) of the same compound?
Answer: 0 n

Question: What about the “Patients with Gr3 TEAE: Asthenia” value (Part B, 400 mg, N=49) of the same compound?
Answer: 0 n

Question: What about the “Patients with Gr3 TEAE: Back pain” value (Part B, 400 mg, N=49) of the same compound?
Answer: 0 n

Question: And the “Patients with Gr3 TEAE: Constipation” value (Part B, 400 mg, N=49)?
Answer: 0 n

Question: And the “Patients with Gr3 TEAE: Cough” value (Part B, 400 mg, N=49)?
Answer: 0 n

Question: And the “Patients with Gr3 TEAE: Decreased appetite” value (Part B, 400 mg, N=49)?
Answer: 0 n

Question: What about the “Patients with Gr3 TEAE: Depression” value (Part B, 400 mg, N=49) of the same compound?
Answer: 0 n

Question: What about the “Patients with Gr3 TEAE: Diarrhoea” value (Part B, 400 mg, N=49) of the same compound?
Answer: 0 n

Question: What about the “Patients with Gr3 TEAE: Dry skin” value (Part B, 400 mg, N=49) of the same compound?
Answer: 0 n

Question: And the “Patients with Gr3 TEAE: Dyspnoea” value (Part B, 400 mg, N=49)?
Answer: 0 n

Question: What about the “Patients with Gr3 TEAE: Gastroesophageal reflux disease” value (Part B, 400 mg, N=49) of the same compound?
Answer: 0 n

Question: And the “Patients with Gr3 TEAE: Headache” value (Part B, 400 mg, N=49)?
Answer: 0 n

Question: And the “Patients with Gr3 TEAE: Hot flush” value (Part B, 400 mg, N=49)?
Answer: 0 n

Question: And the “Patients with Gr3 TEAE: Hypertension” value (Part B, 400 mg, N=49)?
Answer: 0 n

Question: And the “Patients with Gr3 TEAE: Musculoskeletal pain” value (Part B, 400 mg, N=49)?
Answer: 0 n

Question: And the “Patients with Gr3 TEAE: Nasopharyngitis” value (Part B, 400 mg, N=49)?
Answer: 0 n

Question: And the “Patients with Gr3 TEAE: Pyrexia” value (Part B, 400 mg, N=49)?
Answer: 0 n

Question: What about the “Patients with Gr3 TEAE: Rhinitis allergic” value (Part B, 400 mg, N=49) of the same compound?
Answer: 0 n

Question: And the “Patients with Gr3 TEAE: Urinary tract infection” value (Part B, 400 mg, N=49)?
Answer: 0 n

Question: What about the “Patients with related Gr3 TEAE: ALL” value (Part B, 400 mg, N=49) of the same compound?
Answer: 0 n

Question: And the “Patients with related Gr3 TEAE: ALT increased” value (Part B, 400 mg, N=49)?
Answer: 0 n

Question: What about the “Patients with related Gr3 TEAE: AST increased” value (Part B, 400 mg, N=49) of the same compound?
Answer: 0 n

Question: What about the “Patients with related Gr3 TEAE: Abdominal pain” value (Part B, 400 mg, N=49) of the same compound?
Answer: 0 n

Question: What about the “Patients with related Gr3 TEAE: Abdominal pain upper” value (Part B, 400 mg, N=49) of the same compound?
Answer: 0 n

Question: What about the “Patients with related Gr3 TEAE: Arthralgia” value (Part B, 400 mg, N=49) of the same compound?
Answer: 0 n

Question: And the “Patients with related Gr3 TEAE: Asthenia” value (Part B, 400 mg, N=49)?
Answer: 0 n

Question: What about the “Patients with related Gr3 TEAE: Back pain” value (Part B, 400 mg, N=49) of the same compound?
Answer: 0 n

Question: And the “Patients with related Gr3 TEAE: Constipation” value (Part B, 400 mg, N=49)?
Answer: 0 n

Question: And the “Patients with related Gr3 TEAE: Cough” value (Part B, 400 mg, N=49)?
Answer: 0 n

Question: And the “Patients with related Gr3 TEAE: Decreased appetite” value (Part B, 400 mg, N=49)?
Answer: 0 n

Question: And the “Patients with related Gr3 TEAE: Depression” value (Part B, 400 mg, N=49)?
Answer: 0 n

Question: And the “Patients with related Gr3 TEAE: Diarrhoea” value (Part B, 400 mg, N=49)?
Answer: 0 n

Question: What about the “Patients with related Gr3 TEAE: Dry skin” value (Part B, 400 mg, N=49) of the same compound?
Answer: 0 n

Question: And the “Patients with related Gr3 TEAE: Dyspnoea” value (Part B, 400 mg, N=49)?
Answer: 0 n

Question: And the “Patients with related Gr3 TEAE: Fatigue” value (Part B, 400 mg, N=49)?
Answer: 0 n

Question: And the “Patients with related Gr3 TEAE: Gastroesophageal reflux disease” value (Part B, 400 mg, N=49)?
Answer: 0 n

Question: And the “Patients with related Gr3 TEAE: Headache” value (Part B, 400 mg, N=49)?
Answer: 0 n

Question: What about the “Patients with related Gr3 TEAE: Hot flush” value (Part B, 400 mg, N=49) of the same compound?
Answer: 0 n

Question: What about the “Patients with related Gr3 TEAE: Hypertension” value (Part B, 400 mg, N=49) of the same compound?
Answer: 0 n

Question: And the “Patients with related Gr3 TEAE: Musculoskeletal pain” value (Part B, 400 mg, N=49)?
Answer: 0 n

Question: And the “Patients with related Gr3 TEAE: Nasopharyngitis” value (Part B, 400 mg, N=49)?
Answer: 0 n

Question: And the “Patients with related Gr3 TEAE: Nausea” value (Part B, 400 mg, N=49)?
Answer: 0 n

Question: What about the “Patients with related Gr3 TEAE: Pyrexia” value (Part B, 400 mg, N=49) of the same compound?
Answer: 0 n

Question: And the “Patients with related Gr3 TEAE: Rhinitis allergic” value (Part B, 400 mg, N=49)?
Answer: 0 n

Question: What about the “Patients with related Gr3 TEAE: Urinary tract infection” value (Part B, 400 mg, N=49) of the same compound?
Answer: 0 n

Question: What about the “Patients with related Gr3 TEAE: Vomiting” value (Part B, 400 mg, N=49) of the same compound?
Answer: 0 n

Question: What about the “Patients with related TEAE: ALT increased” value (Part B, 400 mg, N=49) of the same compound?
Answer: 0 n

Question: What about the “Patients with related TEAE: AST increased” value (Part B, 400 mg, N=49) of the same compound?
Answer: 0 n

Question: What about the “Patients with related TEAE: Back pain” value (Part B, 400 mg, N=49) of the same compound?
Answer: 0 n

Question: And the “Patients with related TEAE: Headache” value (Part B, 400 mg, N=49)?
Answer: 0 n

Question: What about the “Patients with related TEAE: Nasopharyngitis” value (Part B, 400 mg, N=49) of the same compound?
Answer: 0 n

Question: And the “Patients with related TEAE: Pyrexia” value (Part B, 400 mg, N=49)?
Answer: 0 n

Question: What about the “Patients with related TEAE: Rhinitis allergic” value (Part B, 400 mg, N=49) of the same compound?
Answer: 0 n

Question: What about the “number of SAEs of grade ≥3” value (Part B, N=49) of the same compound?
Answer: 14

Question: And the “laboratory abnormality reported as adverse event: alkaline phosphatase increase” value (Part B, not considered related)?
Answer: 1

Question: And the “laboratory abnormality reported as adverse event: hyperbilirubinemia” value (Part B, not considered related)?
Answer: 2

Question: What about the “laboratory abnormality reported as adverse event: hypercalcemia” value (Part B, not considered related) of the same compound?
Answer: 1

Question: What about the “laboratory abnormality reported as adverse event: increase of alanine amino transferase” value (Part B, not considered related) of the same compound?
Answer: 3

Question: What about the “laboratory abnormality reported as adverse event: increase of aspartate amino transferase” value (Part B, not considered related) of the same compound?
Answer: 3

Question: And the “related serious adverse events” value (whole study)?
Answer: no related serious adverse events
